Test results: the NIST ThermoML archive (doi:10.1021/je400861g)
Numbers after ± are expanded uncertainties.

Assay: mn = molality of the nth substance listed, in mol/kg
Conditions: 298.15 K; for surface tension liquid-gas: Ring tensiometer; for electrical conductivity: 101 kPa, Liquid, DDS-11A conductometer

Row | Compound | surface tension liquid-gas (m1 = 0.0003) [mN/m] | surface tension liquid-gas (m1 = 0.0006) [mN/m] | surface tension liquid-gas (m1 = 0.001) [mN/m] | surface tension liquid-gas (m1 = 0.0018) [mN/m] | surface tension liquid-gas (m1 = 0.003) [mN/m] | surface tension liquid-gas (m1 = 0.006) [mN/m] | surface tension liquid-gas (m1 = 0.01) [mN/m] | surface tension liquid-gas (m1 = 0.018) [mN/m] | electrical conductivity (m1 = 0.0003) [S/m] | electrical conductivity (m1 = 0.0006) [S/m] | electrical conductivity (m1 = 0.001) [S/m] | electrical conductivity (m1 = 0.0018) [S/m] | electrical conductivity (m1 = 0.003) [S/m] | electrical conductivity (m1 = 0.006) [S/m] | electrical conductivity (m1 = 0.01) [S/m] | electrical conductivity (m1 = 0.018) [S/m] | electrical conductivity (m1 = 0.03) [S/m] | electrical conductivity (m1 = 0.04) [S/m] | electrical conductivity (m1 = 0.06) [S/m] | surface tension liquid-gas (m1 = 0.0001) [mN/m] | further results
1 | CCCCCCCCCCCC[n+]1ccn(C)c1.F[B-](F)(F)F [1-dodecyl-3-methylimidazolium tetrafluoroborate] + O | 56.4 ± 0.9 | 50.4 ± 0.9 | 43.1 ± 0.8 | 34.3 ± 0.7 | 29.6 ± 0.7 | 28.2 ± 0.7 | 28.2 ± 0.7 | 28.3 ± 0.7 | 0.0324 ± 0.002 | 0.0346 ± 0.002 | 0.0379 ± 0.002 | 0.0455 ± 0.002 | 0.0553 ± 0.002 | 0.0629 ± 0.002 | 0.0653 ± 0.002 | 0.0712 ± 0.002 | 0.0809 ± 0.002 | 0.091 ± 0.002 | 0.11 ± 0.002 |  | surface tension liquid-gas (m1 = 0.008): 28.3 ± 0.7 mN/m; surface tension liquid-gas (m1 = 0.03): 28 ± 0.7 mN/m; surface tension liquid-gas (m1 = 0.06): 27.7 ± 0.7 mN/m; electrical conductivity (m1 = 0.008): 0.064 ± 0.002 S/m
2 | CCCCCCCCCCCCCCCCn1cc[n+](C)c1.F[B-](F)(F)F [1-hexadecyl-3-methylimidazolium tetrafluoroborate] + O | 36.4 ± 0.8 |  |  |  |  |  |  |  | 0.0265 ± 0.002 |  | 0.0593 ± 0.002 |  |  |  |  |  |  |  |  | 36.7 ± 0.8 | surface tension liquid-gas (m1 = 1e-05): 52.9 ± 2.2 mN/m; surface tension liquid-gas (m1 = 2e-05): 47.9 ± 2 mN/m; surface tension liquid-gas (m1 = 3e-05): 43.8 ± 1.5 mN/m; surface tension liquid-gas (m1 = 5e-05): 38.4 ± 1.2 mN/m; surface tension liquid-gas (m1 = 7e-05): 34.9 ± 0.8 mN/m; surface tension liquid-gas (m1 = 0.0002): 37 ± 0.8 mN/m; surface tension liquid-gas (m1 = 0.0005): 35.2 ± 0.7 mN/m; surface tension liquid-gas (m1 = 0.0007): 35.2 ± 0.7 mN/m; electrical conductivity (m1 = 3e-06): 0.0022 ± 0.002 S/m; electrical conductivity (m1 = 5e-06): 0.0022 ± 0.0022 S/m; electrical conductivity (m1 = 7e-06): 0.0024 ± 0.002 S/m; electrical conductivity (m1 = 5e-05): 0.007 ± 0.0021 S/m; electrical conductivity (m1 = 7e-05): 0.0103 ± 0.0021 S/m; electrical conductivity (m1 = 0.0001): 0.0142 ± 0.002 S/m; electrical conductivity (m1 = 0.0002): 0.0203 ± 0.002 S/m; electrical conductivity (m1 = 0.0005): 0.0372 ± 0.002 S/m; electrical conductivity (m1 = 0.0007): 0.0462 ± 0.002 S/m
3 | CCCCCCCCCCCCCCn1cc[n+](C)c1.F[B-](F)(F)F [3-methyl-1-tetradecyl-1H-imidazol-3-ium tetrafluoroborate] + O | 39 ± 0.8 | 33.6 ± 0.7 | 29.9 ± 0.7 | 28.4 ± 0.7 | 27.8 ± 0.7 | 27.6 ± 0.7 | 27.3 ± 0.7 | 27 ± 0.7 | 0.032 ± 0.002 | 0.0344 ± 0.002 | 0.036 ± 0.002 | 0.0368 ± 0.002 | 0.0376 ± 0.002 | 0.0393 ± 0.002 | 0.0423 ± 0.002 | 0.0487 ± 0.002 | 0.0543 ± 0.002 | 0.0633 ± 0.002 | 0.0732 ± 0.002 | 47.9 ± 0.9 | surface tension liquid-gas (m1 = 0.00018): 41.9 ± 0.8 mN/m
